Test results as given in patent US20250270213A1, “PI3Ka INHIBITORS” (Synnovation Therapeutics, Inc., priority 2022, published 2025).
Read-outs that look alike come from different tables or passages of the source.

System: T47D (PIK3CA H1047R) cells
Assay: pS473 AKT assay with 2.5% FBS, T47D cells
Type: cell-based
Settings: pSer473 AKT, DMEM with 2.5% FBS, 2 h treatment, read-out: T47D_IC50
In short: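 In-cell chemiluminescent ELISA of AKT Ser473 phosphorylation, using anti-pSer473 primary and HRP secondary antibodies on fixed cells. T47D (PIK3CA H1047R) cells had 2 h of compound treatment in DMEM containing 2.5% FBS; IC50 derived from dose-response.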

Row | IC50 (Homo sapiens) | IC50 | Structure (SMILES)
1 | < 1000 nM |  | CC(=O)N1CC(n2ncc3c4c(C(C)Nc5ccc(Cl)nc5-c5ccc(=O)n(C)c5)cc(C)cc4c(=O)n(C)c32)C1 (stereo not shown) [Compound 100, 3-(1-Acetylazetidin-3-yl)-9-(1-((6-chloro-1′-methyl-6′-oxo-1′,6′-dihydro-[2,3′-bipyridin]-3-yl)amino)ethyl)-4,7-dimethyl-3,4-dihydro-5H-pyrazolo[3,4-c]isoquinolin-5-one]
2 | < 1000 nM |  | CC(=O)N1CCC(n2ncc3c4c(C(C)Nc5ccc(Cl)nc5-c5ncn(C)n5)cc(C)cc4c(=O)n(C)c32)CC1 (stereo not shown) [Example 188, 3-(1-acetylpiperidin-4-yl)-9-(1-((6-chloro-2-(1-methyl-1H-1,2,4-triazol-3-yl)pyridin-3-yl)amino)ethyl)-4,7-dimethyl-3,4-dihydro-5H-pyrazolo[3,4-c]isoquinolin-5-one]
3 | < 1000 nM |  | Cc1cc(C(C)Nc2ccc(Cl)nc2-c2ncn(CCO)n2)c2c(c1)c(=O)n(C)c1c2cnn1C1CN(C)C1 (stereo not shown) [Compound 83, 9-(1-((6-chloro-2-(1-(2-hydroxyethyl)-1H-1,2,4-triazol-3-yl)pyridin-3-yl)amino)ethyl)-4,7-dimethyl-3-(1-methylazetidin-3-yl)-3,4-dihydro-5H-pyrazolo[3,4-c]isoquinolin-5-one]
4 | < 1000 nM |  | [2H]C([2H])([2H])n1c(=O)c2cc(C)cc(C(C)Nc3ccc(Cl)nc3-c3cnn(C)c3)c2c2cnn(C3CCN(CCO)C3)c21 (stereo not shown) [Compound 140, 9-(1-((6-chloro-2-(1-methyl-1H-pyrazol-4-yl)pyridin-3-yl)amino)ethyl)-3-(1-(2-hydroxyethyl)pyrrolidin-3-yl)-7-methyl-4-(methyl-d3)-3,4-dihydro-5H-pyrazolo[3,4-c]isoquinolin-5-one]
5 | < 1000 nM |  | CCOC(=O)N1CCC(c2ncn3c4c(C(C)Nc5ccc(Cl)nc5-c5ncn(C)n5)cc(C)cc4c(=O)n(C)c23)CC1 (stereo not shown) [Compound 133, ethyl 4-(9-(1-((6-chloro-2-(1-methyl-1H-1,2,4-triazol-3-yl)pyridin-3-yl)amino)ethyl)-4,7-dimethyl-5-oxo-4,5-dihydroimidazo[1,5-a]quinazolin-3-yl)piperidine-1-carboxylate]
6 | < 1000 nM |  | Cc1cc(C(C)Nc2ccc(Cl)nc2N2CCC(O)CC2)c2c(c1)c(=O)n(C)c1c2cnn1C1CCN(C)CC1 (stereo not shown) [Compound 167, 9-[1-[[6-chloro-2-(4-hydroxy-1-piperidyl)-3-pyridyl]amino]ethyl]-4,7-dimethyl-3-(1-methyl-4-piperidyl)pyrazolo[3,4-c]isoquinolin-5-one]
7 | < 1000 nM |  | CCn1c(=O)c2cc(C)cc(C(C)Nc3ccc(Cl)nc3-c3ncn(C)n3)c2c2cn(C3CN(C)C3)nc21 (stereo not shown) [Example 205, 9-(1-((6-Chloro-2-(1-methyl-1H-1,2,4-triazol-3-yl)pyridin-3-yl)amino)ethyl)-4-ethyl-7-methyl-2-(1-methylazetidin-3-yl)-2,4-dihydro-5H-pyrazolo[3,4-c]isoquinolin-5-one]
8 | < 1000 nM |  | Cc1cc(C(C)Nc2ccc(Cl)nc2N2CCC(O)CC2)c2c(c1)c(=O)n(C)c1c2cnn1CCO (stereo not shown) [Example 245, 9-(1-((6-chloro-2-(4-hydroxypiperidin-1-yl)pyridin-3-yl)amino)ethyl)-3-(2-hydroxyethyl)-4,7-dimethyl-3,4-dihydro-5H-pyrazolo[3,4-c]isoquinolin-5-one]
9 | < 1000 nM |  | Cc1cc(C(CO)Nc2ccc(Cl)nc2-c2ncn(C)n2)c2c(c1)c(=O)n1c3c2cnn3CCC1 (stereo not shown) [Compound 328, 10-(1-((6-Chloro-2-(1-methyl-1H-1,2,4-triazol-3-yl)pyridin-3-yl)amino)-2-hydroxyethyl)-8-methyl-4,5-dihydro-3H,6H-2,2a,5a-triazaaceanthrylen-6-one]
10 | < 1000 nM |  | Cc1cc(C(C)Nc2ccc(Cl)nc2-c2ncn(C)n2)c2c(c1)c(=O)n(C)c1c(-c3cncnc3)ncn21 (stereo not shown) [Compound 114, 9-(1-((6-chloro-2-(1-methyl-1H-1,2,4-triazol-3-yl)pyridin-3-yl)amino)ethyl)-4,7-dimethyl-3-(pyrimidin-5-yl)imidazo[1,5-a]quinazolin-5(4H)-one]
11 | < 1000 nM |  | Cc1cc(C(C)Nc2ccc(Cl)nc2-c2ccc(=O)n(C)c2)c2c(c1)c(=O)n1c3c2cnn3CCC1 (stereo not shown) [Compound 308, 10-(1-((6-chloro-1′-methyl-6′-oxo-1′,6′-dihydro-[2,3′-pyridin]-3-yl)amino)ethyl)-8-methyl-4,5-dihydro-3H,6H-2,2a,5a-triazaaceanthrylen-6-one]
12 | < 1000 nM |  | Cc1cc(C(C)Nc2ccc(Cl)nc2-c2cnn(CCO)c2)c2c(c1)c(=O)n1c3c2cnn3CCC1 (stereo not shown) [Compound 300, 10-(1-((6-chloro-2-(1-(2-hydroxyethyl)-1H-pyrazol-4-yl)pyridin-3-yl)amino)ethyl)-8-methyl-4,5-dihydro-3H,6H-2,2a,5a-triazaaceanthrylen-6-one]
13 | < 1000 nM |  | CCn1ncc2c3c(C(C)Nc4ccc(Cl)nc4-c4nnn[nH]4)cc(C)cc3c(=O)n(C)c21 (stereo not shown) [Example 230, 9-(1-((6-chloro-2-(1H-tetrazol-5-yl)pyridin-3-yl)amino)ethyl)-3-ethyl-4,7-dimethyl-3,4-dihydro-5H-pyrazolo[3,4-c]isoquinolin-5-one]
14 | < 1000 nM |  | Cc1cc(C(C)Nc2ccc(Cl)nc2-c2cnn(C)c2)c2c(c1)c(=O)n(C)c1c2cnn1C1CCN(C)CC1 (stereo not shown) [Compound 158, 9-(1-((6-Chloro-2-(1-methyl-1H-pyrazol-4-yl)pyridin-3-yl)amino)ethyl)-4,7-dimethyl-3-(1-methylpiperidin-4-yl)-3,4-dihydro-5H-pyrazolo[3,4-c]isoquinolin-5-one]
15 |  | < 1000 nM | CCn1ncc2c3c(C(C)Nc4ccc(Cl)nc4-c4ccc(C(=O)O)cc4)cc(C)cc3c(=O)n(C)c21 (stereo not shown) [Example 232, 4-(6-chloro-3-((1-(3-ethyl-4,7-dimethyl-5-oxo-4,5-dihydro-3H-pyrazolo[3,4-c]isoquinolin-9-yl)ethyl)amino)pyridin-2-yl)benzoic acid]
16 | < 1000 nM |  | Cc1cc(C(C)Nc2ccc(Cl)nc2-c2ncn(C)n2)c2c(c1)c(=O)n(C)c1c2cnn1C1CCN(S(C)(=O)=O)CC1 (stereo not shown) [Example 190, 9-(1-((6-chloro-2-(1-methyl-1H-1,2,4-triazol-3-yl)pyridin-3-yl)amino)ethyl)-4,7-dimethyl-3-(1-(methylsulfonyl)piperidin-4-yl)-3,4-dihydro-5H-pyrazolo[3,4-c]isoquinolin-5-one]
17 | < 1000 nM |  | CNC(=O)c1cc(-c2ncn3c4c(C(C)Nc5ccc(Cl)nc5-c5cnn(C)c5)cc(C)cc4c(=O)n(C)c23)ccn1 (stereo not shown) [Compound 118, 4-(9-(1-((6-chloro-2-(1-methyl-1H-pyrazol-4-yl)pyridin-3-yl)amino)ethyl)-4,7-dimethyl-5-oxo-4,5-dihydroimidazo[1,5-a]quinazolin-3-yl)-N-methylpicolinamide]
18 | < 1000 nM |  | CCn1c(=O)c2cc(C)cc(C(C)Nc3ccc(Cl)nc3-c3ncn(C)n3)c2c2cnn(-c3ccccn3)c21 (stereo not shown) [Example 269, 9-[1-[[6-Chloro-2-(1-methyl-1,2,4-triazol-3-yl)-3-pyridyl]amino]ethyl]-4-ethyl-7-methyl-3-(2-pyridyl)pyrazolo[3,4-c]isoquinolin-5-one]
19 | < 1000 nM |  | Cc1cc(C(C)Nc2ccc(Cl)nc2-c2ccc3c(cnn3C)c2)c2c(c1)c(=O)n1c3c2cnn3CCC1 (stereo not shown) [Compound 316, 10-(1-((6-chloro-2-(1-methyl-1H-indazol-5-yl)pyridin-3-yl)amino)ethyl)-8-methyl-4,5-dihydro-3H,6H-2,2a,5a-triazaaceanthrylen-6-one]
